Measurements as given in patent US12708136B2, “Supported nicotine composition” (priority 2021, dated 2026).

Details: nicotine used in the experiments
Procedure: Mixtures were prepared of 10%, 20% and 50% by weight of nicotine on Florite® PS-200 grade and on Florite® R-grade.

Which “starting level of impurity myosmine” value does the source give for `CN1CCCC1c1cccnc1` (stereo not shown) [nicotine] here?
Its value is 0.14%.
